According to ChEMBL document CHEMBL5375952, “Discovery of Novel 8-Hydroxyquinoline Derivatives with Potent In Vitro and In Vivo Antifungal Activity” (J Med Chem, 2023):
Activity calls are given as the source filed them. The calls are words filed in the database; no cut-off is given here.

Columns and labels:
[1] = test system: Candida albicans; assay: Synergistic antifungal activity against FLC-resistant Candida albicans 12 assessed as fungal growth inhibition incubated for 48 hrs in presence of FLC by broth microdilution method; assay type: functional
[2] = test system: Candida albicans; assay: Synergistic antifungal activity against FLC-resistant Candida albicans 5740 assessed as MIC of FLC incubated for 48 hrs by broth microdilution method; assay type: functional
[3] = test system: Candida albicans; assay: Synergistic antifungal activity against Candida albicans 0304103 assessed as fungal growth inhibition at 4 ug/ml incubated for 48 hrs in presence of FLC by time-kill assay; assay type: functional, organism-based; conditions: dose 4.0 µg/ml
[4] = test system: Candida albicans; assay: Synergistic antifungal activity against FLC-resistant Candida albicans 385 assessed as fungal growth inhibition incubated for 48 hrs in presence of FLC by broth microdilution method; assay type: functional
[5] = Cmax in Sprague-Dawley rat at 5 mg/kg, po by LC-MS/MS analysis; assay type: ADME, organism-based; parameters: dose 5 mg/kg, route po; conditions: in vivo
[6] = test system: Candida albicans; assay: Synergistic antifungal activity against FLC-resistant Candida albicans 710419 assessed as MIC of FLC incubated for 48 hrs by broth microdilution method; assay type: functional
[7] = test system: Candida albicans; assay: Synergistic antifungal activity against FLC-resistant Candida albicans 540 assessed as fungal growth inhibition incubated for 48 hrs in presence of FLC by broth microdilution method; assay type: functional
[8] = test system: Candida albicans; assay: Synergistic antifungal activity against FLC-resistant Candida albicans 1221 assessed as MIC of FLC incubated for 48 hrs by broth microdilution method; assay type: functional
[9] = test system: Candida albicans; assay: Synergistic antifungal activity against FLC-resistant Candida albicans 395 assessed as MIC of FLC incubated for 48 hrs by broth microdilution method; assay type: functional
[10] = test system: Candida albicans; assay: Synergistic antifungal activity against FLC-resistant Candida albicans 710452 assessed as fungal growth inhibition incubated for 48 hrs in presence of FLC by broth microdilution method; assay type: functional
[11] = test system: Candida albicans; assay: Antifungal activity against Candida albicans 0304103 assessed as fungal growth inhibition at 4 to 8 ug/ml incubated for 48 hrs by time-kill assay; assay type: functional, organism-based; conditions: dose 4-8 µg/ml
[12] = test system: Candida albicans; assay: Inhibition of biofilm formation of Candida albicans SC5314 at 16 ug/ml incubated for 24 hrs by XTT assay relative to control; assay type: functional
[13] = test system: Candida albicans; assay: Synergistic antifungal activity against FLC-resistant Candida albicans 11 assessed as fractional inhibitory concentration index incubated for 48 hrs in presence of FLC by broth microdilution method; assay type: functional
[14] = test system: Candida albicans; assay: Synergistic antifungal activity against FLC-resistant Candida albicans 14 assessed as fungal growth inhibition incubated for 48 hrs in presence of FLC by broth microdilution method; assay type: functional
[15] = Oral bioavailability in Sprague-Dawley rat at 5 mg/kg by LC-MS/MS analysis; assay type: ADME, organism-based; conditions: in vivo
[16] = MRT (0 to t) in Sprague-Dawley rat at 5 mg/kg, po by LC-MS/MS analysis; assay type: ADME, organism-based; conditions: in vivo
[17] = test system: Candida albicans; assay: Synergistic antifungal activity against FLC-resistant Candida albicans 819 assessed as fungal growth inhibition incubated for 48 hrs in presence of FLC by broth microdilution method; assay type: functional
[18] = test system: Candida albicans; assay: Synergistic antifungal activity against FLC-resistant Candida albicans 17 assessed as MIC of FLC incubated for 48 hrs by broth microdilution method; assay type: functional
[19] = test system: Candida albicans; assay: Synergistic antifungal activity against FLC-resistant Candida albicans 241 assessed as fractional inhibitory concentration index incubated for 48 hrs in presence of FLC by broth microdilution method; assay type: functional
[20] = test system: Candida albicans; assay: Synergistic antifungal activity against FLC-resistant Candida albicans 710506 assessed as fractional inhibitory concentration index incubated for 48 hrs in presence of FLC by broth microdilution method; assay type: functional
[21] = test system: Candida albicans; assay: Synergistic antifungal activity against FLC-resistant Candida albicans 249 assessed as fractional inhibitory concentration index incubated for 48 hrs in presence of FLC by broth microdilution method; assay type: functional
[22] = test system: Candida albicans; assay: Synergistic antifungal activity against FLC-resistant Candida albicans 512644 assessed as fungal growth inhibition incubated for 48 hrs in presence of FLC by broth microdilution method; assay type: functional
[23] = test system: Candida albicans; assay: Synergistic antifungal activity against FLC-resistant Candida albicans 1221 assessed as fungal growth inhibition incubated for 48 hrs in presence of FLC by broth microdilution method; assay type: functional
[24] = test system: Candida albicans; assay: Synergistic antifungal activity against FLC-resistant Candida albicans 304103 assessed as fungal growth inhibition incubated for 48 hrs in presence of FLC by broth microdilution method; assay type: functional
[25] = test system: Candida albicans; assay: Synergistic antifungal activity against FLC-resistant Candida albicans 512681 assessed as MIC of FLC incubated for 48 hrs by broth microdilution method; assay type: functional
[26] = test system: Candida albicans; assay: Inhibition of hypha formation in Candida albicans SC5314 at 4 ug/ml incubated for 3 hrs by inverted phase contrast microscopy; assay type: functional, organism-based; conditions: dose 4.0 µg/ml
[27] = test system: Candida albicans; assay: Synergistic antifungal activity against FLC-resistant Candida albicans 11 assessed as MIC of FLC incubated for 48 hrs by broth microdilution method; assay type: functional
[28] = test system: Candida albicans; assay: Synergistic antifungal activity against FLC-resistant Candida albicans 540 assessed as fractional inhibitory concentration index incubated for 48 hrs in presence of FLC by broth microdilution method; assay type: functional
[29] = test system: Candida albicans; assay: Synergistic antifungal activity against FLC-resistant Candida albicans 304103 assessed as MIC of FLC incubated for 48 hrs by broth microdilution method; assay type: functional
[30] = test system: Candida albicans; assay: Synergistic antifungal activity against FLC-resistant Candida albicans 512644 assessed as MIC of FLC incubated for 48 hrs by broth microdilution method; assay type: functional
[31] = C0 in Sprague-Dawley rat at 2 mg/kg, iv by LC-MS/MS analysis; assay type: ADME, organism-based; conditions: in vivo
[32] = test system: Candida albicans; assay: Synergistic antifungal activity against FLC-resistant Candida albicans 538 assessed as MIC of FLC incubated for 48 hrs by broth microdilution method; assay type: functional
[33] = test system: Candida albicans; assay: Synergistic antifungal activity against FLC-resistant Candida albicans 385 assessed as MIC of FLC incubated for 48 hrs by broth microdilution method; assay type: functional
[34] = test system: Candida albicans; assay: Synergistic antifungal activity against Candida albicans 0304103 assessed as reduction in fungal growth at 8 ug/ml incubated for 48 hrs in presence of FLC by time-kill assay; assay type: functional; conditions: dose 8 µg/ml
[35] = test system: Candida albicans; assay: Synergistic antifungal activity against FLC-resistant Candida albicans 17 assessed as fungal growth inhibition incubated for 48 hrs in presence of FLC by broth microdilution method; assay type: functional
[36] = test system: Candida albicans; assay: Synergistic antifungal activity against FLC-resistant Candida albicans 605141 assessed as fungal growth inhibition incubated for 48 hrs in presence of FLC by broth microdilution method; assay type: functional
[37] = test system: Candida albicans; assay: Synergistic antifungal activity against FLC-resistant Candida albicans 304103 assessed as fractional inhibitory concentration index incubated for 48 hrs in presence of FLC by broth microdilution method; assay type: functional
[38] = test system: Candida albicans; assay: Synergistic antifungal activity against FLC-resistant Candida albicans 100 assessed as fungal growth inhibition incubated for 48 hrs in presence of FLC by broth microdilution method; assay type: functional
[39] = test system: Candida albicans; assay: Synergistic antifungal activity against FLC-resistant Candida albicans 710506 assessed as fungal growth inhibition incubated for 48 hrs in presence of FLC by broth microdilution method; assay type: functional
[40] = test system: Candida albicans; assay: Synergistic antifungal activity against FLC-resistant Candida albicans 819 assessed as MIC of FLC incubated for 48 hrs by broth microdilution method; assay type: functional
[41] = Toxicity in C57BL/6 mouse infected with Candida albicans SC5314 assessed as animal death at 0.25 mg/kg, ip measured after 7 days; assay type: organism-based; conditions: in vivo, 168 h, time 7 day

In the case of `CCN(CC)c1ccc(C(NC(=O)C(C)C)c2ccc3cccnc3c2O)cc1` (stereo unspecified), the MIC [1] is reported as 8 ng/mL, the MIC [2] is reported as 2 µg/mL and the “growth inhibition (GI)” value [3] is reported as “Active”. It also gave an MIC [4] of 8 ng/mL, a Cmax [5] of 239 ng/mL and an MIC [6] of 0.25 µg/mL. It also gave an MIC [7] of 0.016 µg/mL, an MIC [8] of 0.125 µg/mL and an MIC [9] of 0.25 µg/mL. The MIC [10] was 0.016 µg/mL, the “growth inhibition (GI)” value [11] was “inactive” and the inhibition at 16 µg/mL [12] was 29.8%. For the same compound, the “fractional inhibitory concentration index (FICI)” value [13] was 0.039, the MIC [14] was 0.016 µg/mL and the bioavailability [15] was 5.7%. The MRT last [16] was 48.8 min, the MIC [17] was 0.016 µg/mL and the MIC [18] was 0.125 µg/mL. For the same compound, the “fractional inhibitory concentration index (FICI)” value [19] was 0.039, the “fractional inhibitory concentration index (FICI)” value [20] was 0.035 and the “fractional inhibitory concentration index (FICI)” value [21] was 0.035. It also gave an MIC [22] of 8 ng/mL, an MIC [23] of 0.031 µg/mL and an MIC [24] of 8 ng/mL. For the same compound, the MIC [25] was 0.25 µg/mL, the inhibition [26] was “inactive” and the MIC [27] was 0.25 µg/mL. For the same compound, the “fractional inhibitory concentration index (FICI)” value [28] was 0.064, the MIC [29] was 0.5 µg/mL and the MIC [30] was 2 µg/mL. The C0 [31] was 2460 ng/mL, the MIC [32] was 2 µg/mL and the MIC [33] was 2 µg/mL. For the same compound, the Activity [34] was >3 log10CFU/ml, the MIC [35] was 0.016 µg/mL and the MIC [36] was 0.031 µg/mL. For the same compound, the “fractional inhibitory concentration index (FICI)” value [37] was 0.047, the MIC [38] was 0.016 µg/mL and the MIC [39] was 0.031 µg/mL. The MIC [40] was 0.25 µg/mL.

For `OC(Cn1cncn1)(Cn1cncn1)c1ccc(F)cc1F` [FLUCONAZOLE], the Activity [41] was “Toxic”.
